Legend:
[1] = target: T1, human CYP11B1 (Homo sapiens, UniProt P15538); assay: G-402 cellular enzyme assay, human CYP11B1 (cortisol release, HTRF); assay type: cell-based; details: G-402 cells expressing human CYP11B1; 1 μM Deoxycortisol
T1 construct: expressed in transfected cells
T1 sequence (P15538 25-503): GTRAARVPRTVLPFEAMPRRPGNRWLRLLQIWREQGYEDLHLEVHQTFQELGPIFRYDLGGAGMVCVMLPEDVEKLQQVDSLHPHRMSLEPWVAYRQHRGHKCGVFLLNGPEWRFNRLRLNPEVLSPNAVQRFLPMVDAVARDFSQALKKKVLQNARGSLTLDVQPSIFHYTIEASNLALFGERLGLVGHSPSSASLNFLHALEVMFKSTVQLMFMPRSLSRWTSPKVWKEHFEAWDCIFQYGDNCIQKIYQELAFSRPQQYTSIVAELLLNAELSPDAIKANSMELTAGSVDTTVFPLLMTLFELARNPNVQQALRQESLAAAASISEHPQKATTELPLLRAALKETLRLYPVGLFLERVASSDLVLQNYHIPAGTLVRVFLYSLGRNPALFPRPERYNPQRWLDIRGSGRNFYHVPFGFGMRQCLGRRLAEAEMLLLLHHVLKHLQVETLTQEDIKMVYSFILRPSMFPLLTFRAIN
How it was run: (§1)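 EC50 comes from least-squares fitting of a 4-parameter MMF curve to steroid product levels, measured by HTRF as aldosterone for CYP11B2 or cortisol for CYP11B1. Stably transfected G-402 host cells were given substrate (1 μM deoxycorticosterone or deoxycortisol, respectively) with inhibitor for 16 h in medium with 2.5% charcoal-treated FCS.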

[2] = target: T2, human CYP11B2 (Homo sapiens, UniProt P19099); assay: G-402 cellular enzyme assay, human CYP11B2 (aldosterone release, HTRF); assay type: cell-based; details: G-402 cells expressing human CYP11B2; 1 μM Deoxycorticosterone
T2 construct: expressed in transfected cells
T2 sequence (P19099 25-503): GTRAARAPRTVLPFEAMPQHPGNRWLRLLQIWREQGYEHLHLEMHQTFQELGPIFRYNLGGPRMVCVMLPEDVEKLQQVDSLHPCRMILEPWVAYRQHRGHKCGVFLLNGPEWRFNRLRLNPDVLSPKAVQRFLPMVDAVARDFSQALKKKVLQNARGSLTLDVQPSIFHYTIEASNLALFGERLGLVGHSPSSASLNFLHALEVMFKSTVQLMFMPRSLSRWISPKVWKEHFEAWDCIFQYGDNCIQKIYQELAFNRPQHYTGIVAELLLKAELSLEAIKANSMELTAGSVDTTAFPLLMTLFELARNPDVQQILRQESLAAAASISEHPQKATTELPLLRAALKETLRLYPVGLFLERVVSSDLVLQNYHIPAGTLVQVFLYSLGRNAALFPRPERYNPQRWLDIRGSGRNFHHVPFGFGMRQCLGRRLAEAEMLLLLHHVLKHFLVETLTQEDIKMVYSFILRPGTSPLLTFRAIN
How it was run: as §1

SMILES | EC50 [1] [nM] | EC50 [2] [nM]
CN1C(=O)CCc2cc(-c3cncc(CNC(=O)c4ncccc4Cl)c3)ccc21 [Example 118, 3-Chloro-pyridine-2-carboxylic acid [5-(1-methyl-2-oxo-1,2,3,4-tetrahydro-quinolin-6-yl)-pyridin-3-ylmethyl]-amide] | 682 | 4
CN1C(=O)CCc2cc(-c3cncc(CNC(=O)c4ncccc4F)c3)ccc21 [Example 119] | 75 | 6
CCC(=O)N1CC[C@H](Oc2cncc(-c3cc4c(cc3F)N(C)C(=O)CC4)c2)C1 [Example 122] | 535 | 9
CN1C(=O)CCc2cc(-c3cncc(CNC(=O)c4ncc(C(F)(F)F)cn4)c3)ccc21 [Example 123] | 2920 | 62
Cc1cnc(C(=O)NCc2cncc(-c3ccc4c(c3)CCC(=O)N4C)c2)cn1 [Example 124] | 138 | 5
CN1C(=O)CCc2cc(-c3cncc(CNC(=O)c4cnc(Cl)cn4)c3)ccc21 [Example 125] | 154 | 3
Cc1noc(C)c1C(=O)NCc1cncc(-c2cc3c(cc2F)N(C)C(=O)CC3)c1 [Example 127] | 400 | 12
CCC(=O)N1CCC[C@@H]1COc1cncc(-c2ccc3c(c2)CCC(=O)N3C)c1 [Example 128] | 2290 | 119
CCC(=O)N1CC(Oc2cncc(-c3ccc4c(c3)CCC(=O)N4C)c2)C1 [Example 129] | 613 | 30
CCC(=O)NC1(c2cncc(-c3ccc4c(c3)CCC(=O)N4C)c2)COC1 [Example 130] | 10500 | 162
CN1C(=O)CCc2cc(-c3cncc(CNC(=O)c4ncccc4Cl)c3)c(F)cc21 [Example 131, 3-Chloro-pyridine-2-carboxylic acid [5-(7-fluoro-1-methyl-2-oxo-1,2,3,4-tetrahydro-quinolin-6-yl)-pyridin-3-ylmethyl]-amide] | 440 | 3
CN1C(=O)CCc2cc(-c3cncc(CNC(=O)c4cc(Cl)nnc4Cl)c3)c(F)cc21 [Example 132] | 4800 | 29
COc1nc(Cl)cnc1C(=O)NCc1cncc(-c2ccc3c(c2)CCC(=O)N3C)c1 [Example 134] | 94 | 3
Cc1noc(C(F)(F)F)c1C(=O)NCc1cncc(-c2ccc3c(c2)CCC(=O)N3C)c1 [Example 136] | 2430 | 47
CN1C(=O)CCc2cc(-c3cncc(C4(NC(=O)c5ncccc5Cl)CC4)c3)ccc21 [Example 137, 3-Chloro-pyridine-2-carboxylic acid {1-[5-(1-methyl-2-oxo-1,2,3,4-tetrahydro-quinolin-6-yl)-pyridin-3-yl]-cyclopropyl}-amide] | 872 | 6
CN1C(=O)CCc2cc(-c3cncc(C(C)(C)NC(=O)c4ncccc4Cl)c3)ccc21 [Example 138] | 267 | 3
O=C1CCc2cc(-c3cncc(CNC(=O)c4ncccc4Cl)c3)ccc2N1 [Example 140, 3-Chloro-pyridine-2-carboxylic acid [5-(2-oxo-1,2,3,4-tetrahydro-quinolin-6-yl)-pyridin-3-ylmethyl]-amide] | 6650 | 114
Cc1noc(C)c1C(=O)NCc1cncc(-c2ccc3c(c2)CCC(=O)N3)c1 [Example 141, 3,5-Dimethyl-isoxazole-4-carboxylic acid [5-(2-oxo-1,2,3,4-tetrahydro-quinolin-6-yl)-pyridin-3-ylmethyl]-amide] | 19900 | 856
CN1C(=O)CCc2cc(-c3cncc(C4(NC(=O)c5ncccc5Cl)CC4)c3)c(F)cc21 [Example 142] | 380 | 3
Cc1cccnc1C(=O)NC1(c2cncc(-c3ccc4c(c3)CCC(=O)N4C)c2)CC1 [Example 143] | 51 | 9
CN1C(=O)CCc2cc(-c3cncc(CNC(=O)c4cnoc4C(F)(F)F)c3)ccc21 [Example 145] | 3780 | 175
CCS(=O)(=O)NCCOc1cncc(-c2ccc3c(c2)CCC(=O)N3C)c1 [Example 151, ethanesulfonic acid {2-[5-(1-methyl-2-oxo-1,2,3,4-tetrahydro-quinolin-6-yl)-pyridin-3-yloxy]-ethyl}-amide] | 90 | 5
CN1C(=O)CCc2cc(-c3cncc(CNS(=O)(=O)C4CC4)c3)ccc21 [Example 155, Cyclopropanesulfonic acid [5-(1-methyl-2-oxo-1,2,3,4-tetrahydro-quinolin-6-yl)-pyridin-3-ylmethyl]-amide] | 589 | 47
CN1C(=O)CCc2cc(-c3cncc(CNS(=O)(=O)c4ccc(Cl)c(Cl)c4)c3)ccc21 [Example 156, 3,4-Dichloro-N-[5-(1-methyl-2-oxo-1,2,3,4-tetrahydro-quinolin-6-yl)-pyridin-3-ylmethyl]-benzenesulfonamide] | 1370 | 155
CN1C(=O)CCc2cc(-c3cncc(CNS(=O)(=O)c4cnn(C)c4)c3)ccc21 [Example 159, 1-Methyl-1H-pyrazole-4-sulfonic acid [5-(1-methyl-2-oxo-1,2,3,4-tetrahydro-quinolin-6-yl)-pyridin-3-ylmethyl]-amide] | 7930 | 180

More lines, now with the values ahead:

EC50 [1] [nM] | EC50 [2] [nM] | SMILES
14 | 1 | Cc1cccnc1C(=O)NCc1cncc(-c2ccc3c(c2)CCC(=O)N3C)c1 [Example 115, 3-Methyl-pyridine-2-carboxylic acid [5-(1-methyl-2-oxo-1,2,3,4-tetrahydro-quinolin-6-yl)-pyridin-3-ylmethyl]-amide]
81 | 3 | CN1C(=O)CCc2cc(-c3cncc(CNC(=O)c4nc(Cl)ccc4Cl)c3)ccc21 [Example 116]
121 | 8 | Cc1cccc(C(=O)NCc2cncc(-c3ccc4c(c3)CCC(=O)N4C)c2)n1 [Example 117]
1370 | 19 | CCC(=O)N1CC[C@@H](Oc2cncc(-c3ccc4c(c3)CCC(=O)N4C)c2)C1 [Example 121]
642 | 7 | CN1C(=O)CCc2cc(-c3cncc(CNC(=O)c4cnc(C(F)(F)F)cn4)c3)ccc21 [Example 126]
837 | 10 | CCC(=O)N1CC[C@@H](Oc2cncc(-c3cc4c(cc3F)N(C)C(=O)CC4)c2)C1 [Example 133]
455 | 18 | Cc1noc(C)c1C(=O)NC(C)(C)c1cncc(-c2ccc3c(c2)CCC(=O)N3C)c1 [Example 139]
460 | 4 | CCC(=O)N[C@H]1CC[C@H](Oc2cncc(-c3ccc4c(c3)CCC(=O)N4C)c2)CC1 [Example 144]
4750 | 154 | CN1C(=O)CCc2cc(-c3cncc(CNS(=O)(=O)c4cccc(Cl)c4)c3)ccc21 [Example 152, 3-Chloro-N-[5-(1-methyl-2-oxo-1,2,3,4-tetrahydro-quinolin-6-yl)-pyridin-3-ylmethyl]-benzenesulfonamide]
11100 | 375 | COc1ccc(S(=O)(=O)NCc2cncc(-c3ccc4c(c3)CCC(=O)N4C)c2)cn1 [Example 153, 6-Methoxy-pyridine-3-sulfonic acid [5-(1-methyl-2-oxo-1,2,3,4-tetrahydro-quinolin-6-yl)-pyridin-3-ylmethyl]-amide]
1430 | 114 | Cc1noc(C)c1S(=O)(=O)NCc1cncc(-c2ccc3c(c2)CCC(=O)N3C)c1 [Example 154, 3,5-Dimethyl-isoxazole-4-sulfonic acid [5-(1-methyl-2-oxo-1,2,3,4-tetrahydro-quinolin-6-yl)-pyridin-3-ylmethyl]-amide]
3260 | 463 | CN1C(=O)CCc2cc(-c3cncc(CNS(=O)(=O)c4cn(C)cn4)c3)ccc21 [Example 157, 1-Methyl-1H-imidazole-4-sulfonic acid [5-(1-methyl-2-oxo-1,2,3,4-tetrahydro-quinolin-6-yl)-pyridin-3-ylmethyl]-amide]
6430 | 239 | CN1C(=O)CCc2cc(-c3cncc(CNS(=O)(=O)c4ccc(Cl)nc4)c3)ccc21 [Example 158, 6-Chloro-pyridine-3-sulfonic acid [5-(1-methyl-2-oxo-1,2,3,4-tetrahydro-quinolin-6-yl)-pyridin-3-ylmethyl]-amide]

Source: US9260408B2, “Dihydroquinoline-2-one derivatives” (Hoffmann-La Roche Inc., priority 2011, dated 2016)
